This is an account of results in PMC4333385 (Nucleic Acids Research, 2014).

For test [1], the target named is T1, E. coli RecQ helicase (Escherichia coli, UniProt P15043). Kind of test: stopped-flow FRET binding kinetics. Conditions: association rate constant, Kd not given, SF50 buffer pH 7.5, 5 mM MgCl2, 25 °C, labelled compound. The source says:
stopped-flow FRET binding kinetics on E. coli RecQ helicase

Test [2] concerns the target T1, E. coli RecQ helicase. The test can be described thus: stopped-flow FRET binding kinetics (k-1/k1). The settings on record: read-out: DNA-free RecQ. The source says:
stopped-flow FRET binding kinetics (k-1/k1) on E. coli RecQ helicase

Test [3] has as its target T1, E. coli RecQ helicase. The test can be described thus: quenched-flow ATP hydrolysis, global fit. In kind it is biochemical. The settings on record: SF50 buffer pH 7.5, 5 mM MgCl2, 50 mM NaCl, 25 °C; gamma-32P-ATP; read-out: DNA-free RecQ. The source says:
quenched-flow ATP hydrolysis, global fit on E. coli RecQ helicase

T1 sequence (P15043 2-609): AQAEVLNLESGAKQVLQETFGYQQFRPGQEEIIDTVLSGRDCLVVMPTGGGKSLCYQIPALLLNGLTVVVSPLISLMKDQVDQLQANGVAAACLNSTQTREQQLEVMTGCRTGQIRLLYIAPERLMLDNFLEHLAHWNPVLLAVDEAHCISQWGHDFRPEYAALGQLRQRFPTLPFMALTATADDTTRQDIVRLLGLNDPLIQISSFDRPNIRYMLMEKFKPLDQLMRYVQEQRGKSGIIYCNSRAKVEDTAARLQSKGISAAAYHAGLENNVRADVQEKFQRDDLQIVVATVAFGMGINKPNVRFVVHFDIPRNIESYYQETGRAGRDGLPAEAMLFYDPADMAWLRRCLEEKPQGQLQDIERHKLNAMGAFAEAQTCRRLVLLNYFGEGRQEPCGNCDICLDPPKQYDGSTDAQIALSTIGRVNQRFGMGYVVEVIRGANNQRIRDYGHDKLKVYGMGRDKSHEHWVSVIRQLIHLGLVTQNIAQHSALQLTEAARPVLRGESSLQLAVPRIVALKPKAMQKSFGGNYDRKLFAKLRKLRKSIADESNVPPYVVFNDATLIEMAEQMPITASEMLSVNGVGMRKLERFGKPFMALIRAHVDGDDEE

Consider `CNc1ccccc1C(=O)O[C@H]1C[C@H](n2cnc3c(N)ncnc32)O[C@@H]1COP(=O)(O)OP(=O)(O)O` [mdADP], for which the “DNA-free RecQ” value at E. coli RecQ helicase [1] is 4.5 ± 0.5 µM⁻¹ s⁻¹.
For `CNc1ccccc1C(=O)O[C@H]1C[C@H](n2cnc3c(N)ncnc32)O[C@@H]1COP(=O)(O)OP(=O)(O)OP(=O)(O)O` [mdATP, 3′-(N-methylanthraniloyl)-2′-deoxy-ATP], the Kd on E. coli RecQ helicase [2] was determined as 15 ± 2 µM.
For the compound `Nc1ncnc2c1ncn2[C@@H]1O[C@H](COP(=O)(O)OP(=O)(O)OP(=O)(O)O)[C@@H](O)[C@H]1O` [ATP], the Kd on E. coli RecQ helicase [3] was found to be 120 ± 30 µM.
